Measurements taken from patent publication US20130165641A1, “6,11-BRIDGED BIARYL MACROLIDES” (Enanta Pharmaceuticals, Inc., priority 2007, published 2013).
Converted amounts (≈) assume the structure as drawn.

Assays:
[1] = test system: MRSA; assay: MIC by micro-dilution method, MRSA isolates; format: cell-based, Staphylococcus aureus; settings: MRSA isolate 33591; examples of U.S. Pat. No. 6,878,691 for reference
Summary of the method: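 CLSI M7-A7 broth microdilution with inoculum about 5×10^5 CFU/mL, in broth suited to each isolate. Plates incubated 24 h at 35±2 °C in ambient air. MIC is the lowest concentration without visible growth, judged by optical density.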

[2] = test system: H. influenzae; assay: MIC by micro-dilution method, H. influenzae isolates; format: cell-based, Haemophilus influenzae; settings: for MIC H. influenzae 33929: H. influenzae isolate 33929; for MIC H. influenzae 33929 / MIC H. influenzae 49247: examples of U.S. Pat. No. 6,878,691 for reference; for MIC H. influenzae 49247: H. influenzae isolate 49247
Description: Susceptibility tests can be used to quantitatively measure the in vitro activity of an antimicrobial agent against a given bacterial isolate. Compounds are tested for in vitro antibacterial activity by a micro-dilution method. Minimal Inhibitory Concentration (MIC) is determined in 96 well microtiter plates utilizing the appropriate broth medium for the observed bacterial isolates. […] The diluted compounds (2 μl/well) are then transferred into sterile, uninoculated medium (0.2 mL) by use of a 96 fixed tip-pipetting station. The inoculum for each bacterial strain is standardized to approximately 5×10^5 CFU/mL by optical comparison to a 0.5 McFarland turbidity standard. The plates are inoculated with 10 μl/well of adjusted bacterial inoculum. The 96 well plates are covered and incubated at 35+/−2° C. for 24 hours in ambient air environment. Following incubation, plate wells are visually examined by Optical Density measurement for the presence of growth (turbidity). The lowest concentration of an antimicrobial agent at which no visible growth occurs is defined as the MIC.
All in vitro testing follows the guidelines described in the Approved Standards M7-A7 protocol, published by the Clinical Laboratory Standards Institute (CLSI).

[3] = Tissue accumulation of Compound 1 at the site of infection (infected skin tissue); settings: mouse, po, 50 mg/kg
[4] = Rat PK of amino acid prodrug after IV/PO administration; format: in vivo; settings: plasma, 10 mg/kg IV, prodrug itself, read-out: AUC0-∝
[5] = Animal model of infection of Compound 4: RLI, 2Log Red; format: in vivo, rats; settings: RLI (rat lung infection model), ED50
[6] = Animal model of infection of Compound 4: MPT, ED50; format: in vivo, mice; settings: Mus musculus, MPT (mouse protection test model)

SMILES | MIC MRSA 33591 [1] | MIC H. influenzae 33929 [2] | MIC H. influenzae 49247 [2] | MIC ([2]; H. influenzae 33929) | MIC ([2]; H. influenzae 49247) | further results
CC[C@H]1OC(=O)[C@H](C)C(=O)[C@H](C)[C@@H](O[C@@H]2O[C@H](C)C[C@H](N(C)C)[C@H]2O)[C@@]2(C)C[C@@H](C)C(=NC(C)=O)[C@H](C)[C@@H](OC/C(=N\OCc3cnc(-n4cccn4)c(F)c3)CO2)[C@]1(C)O [Compound 259, reference compound] | >64 µg/mL | 8 µg/mL (≈ 9.31 µM) | 8 µg/mL (≈ 9.31 µM) | – | – | –
CC[C@H]1OC(=O)[C@H](C)C(=O)[C@H](C)[C@@H](O[C@@H]2O[C@H](C)C[C@H](N(C)C)[C@H]2O)[C@@]2(C)C[C@@H](C)C(=NC(C)=O)[C@H](C)[C@@H](OC/C(=N\OCc3ccc(-c4cccs4)nc3)CO2)[C@]1(C)O [Compound 205, reference compound] | >64 µg/mL | 4 µg/mL (≈ 4.67 µM) | 8 µg/mL (≈ 9.33 µM) | – | – | –
CCNC(=O)c1cccc(-c2cc(CO/N=C3\CO[C@@H]4[C@@H](C)C(=NC(C)=O)[C@H](C)C[C@@](C)(OC3)[C@H](O[C@@H]3O[C@H](C)C[C@H](N(C)C)[C@H]3O)[C@@H](C)C(=O)[C@@H](C)C(=O)O[C@H](CC)[C@@]4(C)O)on2)n1 [Compound 195, reference compound] | >64 µg/mL | 32 µg/mL (≈ 35 µM) | 32 µg/mL (≈ 35 µM) | – | – | –
CCC(=O)/N=C1\[C@H](C)C[C@@]2(C)OC/C(=N/OCc3ccc(-c4nc(N)cs4)cn3)CO[C@H]([C@H]1C)[C@](C)(O)[C@@H](CC)OC(=O)[C@@](C)(F)C(=O)[C@H](C)[C@H]2O[C@@H]1O[C@H](C)C[C@H](N(C)C)[C@H]1O [Compound 1] | – | – | – | – | – | AUC(0-inf) ([3]; infected skin abscess): 617000 µg·h/mL; AUC(0-t) ([3]; infected skin abscess): 257000 µg·h/mL; Cmax ([3]; infected skin abscess): 9030 µg/mL; AUC(0-inf) ([3]; plasma): 24500 µg·h/mL; AUC(0-t) ([3]; plasma): 24400 µg·h/mL; Cmax ([3]; plasma): 5120 µg/mL; AUC(0-inf) ([3]; uninfected skin): 66600 µg·h/mL; AUC(0-t) ([3]; uninfected skin): 54600 µg·h/mL; Cmax ([3]; uninfected skin): 3800 µg/mL
CC[C@H]1OC(=O)[C@H](C)C(=O)[C@H](C)[C@@H](O[C@@H]2O[C@H](C)C[C@H](N(C)C)[C@H]2O)[C@@]2(C)C[C@@H](C)C(=NC(C)=O)[C@H](C)[C@@H](OC/C(=N\OCc3ccc(-c4nccs4)nc3)CO2)[C@]1(C)O [Compound 212, reference compound] | 64 µg/mL (≈ 74.6 µM) | 4 µg/mL (≈ 4.66 µM) | 8 µg/mL (≈ 9.32 µM) | – | – | –
CCC(=O)/N=C1\[C@H](C)C[C@@]2(C)OC/C(=N/OCc3ccc(-c4nc(NC(=O)[C@@H](N)CC(C)C)cs4)cn3)CO[C@H]([C@H]1C)[C@](C)(O)[C@@H](CC)OC(=O)[C@@](C)(F)C(=O)[C@H](C)[C@H]2O[C@@H]1O[C@H](C)C[C@H](N(C)C)[C@H]1O [Compounds 6] | – | – | – | – | – | AUC [4]: 0.21 µg·h/mL
CC[C@H]1OC(=O)[C@@](C)(F)C(=O)[C@H](C)[C@@H](O[C@@H]2O[C@H](C)C[C@H](N(C)C)[C@H]2O)[C@@]2(C)C[C@@H](C)C(=NC(C)=O)[C@H](C)[C@@H](OC/C(=N\OCc3ccc(-c4csnn4)cc3)CO2)[C@]1(C)O [Compound 219, reference compound] | 32 µg/mL (≈ 36.5 µM) | 4 µg/mL (≈ 4.57 µM) | 4 µg/mL (≈ 4.57 µM) | – | – | –
CC[C@H]1OC(=O)[C@@](C)(F)C(=O)[C@H](C)[C@@H](O[C@@H]2O[C@H](C)C[C@H](N(C)C)[C@H]2O)[C@@]2(C)C[C@@H](C)C(=NC(C)=O)[C@H](C)[C@@H](OC/C(=N\OCc3ccc(-c4cccc(N)n4)s3)CO2)[C@]1(C)O [Compound 173, reference compound] | 4 µg/mL (≈ 4.49 µM) | 4 µg/mL (≈ 4.49 µM) | 4 µg/mL (≈ 4.49 µM) | – | – | –
CC[C@H]1OC(=O)[C@H](C)C(=O)[C@H](C)[C@@H](O[C@@H]2O[C@H](C)C[C@H](N(C)C)[C@H]2O)[C@@]2(C)C[C@@H](C)C(=NC(C)=O)[C@H](C)[C@@H](OC/C(=N\OCc3ccc(-c4nnc(N)s4)nc3)CO2)[C@]1(C)O [Compound 234, reference compound] | >64 µg/mL | 4 µg/mL (≈ 4.58 µM) | 4 µg/mL (≈ 4.58 µM) | – | – | –
CCC(=O)N=C1C(C)CC2(C)OCC(=NOCc3cnc(-c4nsc(N)n4)cn3)COC(C1C)C(C)(O)C(CC)OC(=O)C(C)(F)C(=O)C(C)C2OC1OC(C)CC(N(C)C)C1O (centres unmarked) [Example 67] | – | – | – | 4 µg/mL (≈ 4.41 µM) | 2 µg/mL (≈ 2.2 µM) | –
CC[C@H]1OC(=O)[C@H](C)C(=O)[C@H](C)[C@@H](O[C@@H]2O[C@H](C)C[C@H](N(C)C)[C@H]2O)[C@@]2(C)C[C@@H](C)C(=NC(C)=O)[C@H](C)[C@@H](OC/C(=N\OCc3ccc(-c4cccc(N)n4)nc3)CO2)[C@]1(C)O [Compound 227, reference compound] | 32 µg/mL (≈ 36.9 µM) | 4 µg/mL (≈ 4.61 µM) | 4 µg/mL (≈ 4.61 µM) | – | – | –
CCC1OC(=O)C(C)C(=O)C(C)C(OC2OC(C)CC(N(C)C)C2O)C2(C)CC(C)C(=O)C(C)C(OCC(=NOCc3ccc(-c4nc(N)ns4)cc3)CO2)C1(C)O (centres unmarked) [Example 44] | – | – | – | 2 µg/mL (≈ 2.4 µM) | 1 µg/mL (≈ 1.2 µM) | –
CCC1OC(=O)C(C)C(=O)C(C)C(OC2OC(C)CC(N(C)C)C2O)C2(C)CC(C)C(=O)C(C)C(OCC(=NOCc3cnc(-c4nsc(N)n4)cn3)CO2)C1(C)O (centres unmarked) [Example 68] | – | – | – | 2 µg/mL (≈ 2.4 µM) | 2 µg/mL (≈ 2.4 µM) | –
CCC1OC(=O)C(C)C(=O)C(C)C(OC2OC(C)CC(N(C)C)C2O)C2(C)CC(C)C(=O)C(C)C(OCC(=NOCc3ccc(-c4coc(N)n4)cn3)CO2)C1(C)O (centres unmarked) [Example 55] | – | – | – | 2 µg/mL (≈ 2.45 µM) | 1 µg/mL (≈ 1.23 µM) | –
CCC1OC(=O)C(C)(F)C(=O)C(C)C(OC2OC(C)CC(N(C)C)C2O)C2(C)CC(C)C(=O)C(C)C(OCC(=NOCc3ccc(-c4nc(N)ns4)cc3)CO2)C1(C)O (centres unmarked) [Example 56] | – | – | – | 2 µg/mL (≈ 2.35 µM) | 2 µg/mL (≈ 2.35 µM) | –
CCC(=O)N=C1C(C)CC2(C)OCC(=NOCc3cnc(-c4cccc(N)n4)o3)COC(C1C)C(C)(O)C(CC)OC(=O)C(C)(F)C(=O)C(C)C2OC1OC(C)CC(N(C)C)C1O (centres unmarked) [Example 65] | – | – | – | 4 µg/mL (≈ 4.5 µM) | 1 µg/mL (≈ 1.12 µM) | –
CC[C@H]1OC(=O)[C@@](C)(F)C(=O)[C@H](C)[C@@H](O[C@@H]2O[C@H](C)C[C@H](N(C)C)[C@H]2O)[C@@]2(C)C[C@@H](C)C(=NC(C)=O)[C@H](C)[C@@H](OC/C(=N\OCc3ccc(-c4cnccn4)s3)CO2)[C@]1(C)O [Compound 141, reference compound] | 32 µg/mL (≈ 36.5 µM) | 8 µg/mL (≈ 9.13 µM) | 8 µg/mL (≈ 9.13 µM) | – | – | –
CC[C@H]1OC(=O)[C@@](C)(F)C(=O)[C@H](C)[C@@H](O[C@@H]2O[C@H](C)C[C@H](N(C)C)[C@H]2O)[C@@]2(C)C[C@@H](C)C(=NC(C)=O)[C@H](C)[C@@H](OC/C(=N\OCc3ccc(-n4cccn4)nc3)CO2)[C@]1(C)O [Compound 214, reference compound] | 64 µg/mL (≈ 74.5 µM) | 4 µg/mL (≈ 4.66 µM) | 8 µg/mL (≈ 9.31 µM) | – | – | –
CCC1OC(=O)C(C)C(=O)C(C)C(OC2OC(C)CC(N(C)C)C2O)C2(C)CC(C)C(=O)C(C)C(OCC(=NOCc3ccc(-c4nc(N)no4)cc3)CO2)C1(C)O (centres unmarked) [Example 42] | – | – | – | 2 µg/mL (≈ 2.45 µM) | 1 µg/mL (≈ 1.23 µM) | –
CCC1OC(=O)C(C)C(=O)C(C)C(OC2OC(C)CC(N(C)C)C2O)C2(C)CC(C)C(=O)C(C)C(OCC(=NOCc3coc(-c4cccc(N)n4)n3)CO2)C1(C)O (centres unmarked) [Example 39] | – | – | – | 1 µg/mL (≈ 1.23 µM) | 1 µg/mL (≈ 1.23 µM) | –
CC[C@H]1OC(=O)[C@H](C)C(=O)[C@H](C)[C@@H](O[C@@H]2O[C@H](C)C[C@H](N(C)C)[C@H]2O)[C@@]2(C)C[C@@H](C)C(=NC(C)=O)[C@H](C)[C@@H](OC/C(=N\OCc3ccc(-c4ncccn4)cc3)CO2)[C@]1(C)O [Compound 193, reference compound] | 64 µg/mL (≈ 75.1 µM) | 8 µg/mL (≈ 9.39 µM) | 8 µg/mL (≈ 9.39 µM) | – | – | –
CC[C@H]1OC(=O)[C@H](C)C(=O)[C@H](C)[C@@H](O[C@@H]2O[C@H](C)C[C@H](N(C)C)[C@H]2O)[C@](C)(OC)C[C@@H](C)C(=O)[C@H](C)[C@H]2N(CCCCn3cnc(-c4cccnc4)c3)C(=O)O[C@]12C [Telithromycin, telithromycin] | – | – | – | – | – | 2Log Red ([5]; H. influenzae 1435): 49 mg/kg; 2Log Red ([5]; H. influenzae 3643): 78 mg/kg; 2Log Red ([5]; H. influenzae S1280): 56 mg/kg; ED50 ([6]; S. aureus Smith): 11 mg/kg; ED50 ([6]; S. pneumoniae 7701): 10 mg/kg
CCC1OC(=O)C(C)C(=O)C(C)C(OC2OC(C)CC(N(C)C)C2O)C2(C)CC(C)C(=O)C(C)C(OCC(=NOCc3nc(-c4cccc(N)n4)no3)CO2)C1(C)O (centres unmarked) [Example 53] | – | – | – | 1 µg/mL (≈ 1.22 µM) | 1 µg/mL (≈ 1.22 µM) | –
CCC1OC(=O)C(C)(F)C(=O)C(C)C(OC2OC(C)CC(N(C)C)C2O)C2(C)CC(C)C(=O)C(C)C(OCC(=NOCc3ccc(-c4nc(N)no4)cn3)CO2)C1(C)O (centres unmarked) [Example 43] | – | – | – | 2 µg/mL (≈ 2.4 µM) | 2 µg/mL (≈ 2.4 µM) | –
